Experimental data published in paper PMC6437697 (Journal of Medicinal Chemistry, 2019).

Columns and labels:
Test in all cases: KINOMEscan
Assay type in all cases: binding
Conditions in all cases: read-out: % control activity remaining
MST1 = molecular target: T1, MST1 (Homo sapiens, UniProt Q13043)
T1 construct: purchased Eurofins DiscoverX KINOMEscan
T1 sequence (Q13043 1-487): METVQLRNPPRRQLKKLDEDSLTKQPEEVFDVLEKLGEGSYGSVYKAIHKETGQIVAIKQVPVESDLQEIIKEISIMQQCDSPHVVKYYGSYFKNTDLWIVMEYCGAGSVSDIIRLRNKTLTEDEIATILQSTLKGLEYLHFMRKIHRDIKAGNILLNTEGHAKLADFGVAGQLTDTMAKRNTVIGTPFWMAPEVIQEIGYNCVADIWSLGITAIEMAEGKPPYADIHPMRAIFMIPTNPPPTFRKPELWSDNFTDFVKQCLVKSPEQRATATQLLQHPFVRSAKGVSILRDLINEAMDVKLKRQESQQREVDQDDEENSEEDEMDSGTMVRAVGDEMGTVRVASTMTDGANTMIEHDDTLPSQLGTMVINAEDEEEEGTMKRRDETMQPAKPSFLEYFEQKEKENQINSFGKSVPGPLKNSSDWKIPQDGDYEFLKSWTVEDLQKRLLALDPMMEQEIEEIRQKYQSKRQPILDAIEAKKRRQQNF

ANKK1 = molecular target: T2, ANKK1 (Homo sapiens, UniProt Q8NFD2)
T2 construct: purchased Eurofins DiscoverX KINOMEscan
T2 sequence (Q8NFD2 1-765): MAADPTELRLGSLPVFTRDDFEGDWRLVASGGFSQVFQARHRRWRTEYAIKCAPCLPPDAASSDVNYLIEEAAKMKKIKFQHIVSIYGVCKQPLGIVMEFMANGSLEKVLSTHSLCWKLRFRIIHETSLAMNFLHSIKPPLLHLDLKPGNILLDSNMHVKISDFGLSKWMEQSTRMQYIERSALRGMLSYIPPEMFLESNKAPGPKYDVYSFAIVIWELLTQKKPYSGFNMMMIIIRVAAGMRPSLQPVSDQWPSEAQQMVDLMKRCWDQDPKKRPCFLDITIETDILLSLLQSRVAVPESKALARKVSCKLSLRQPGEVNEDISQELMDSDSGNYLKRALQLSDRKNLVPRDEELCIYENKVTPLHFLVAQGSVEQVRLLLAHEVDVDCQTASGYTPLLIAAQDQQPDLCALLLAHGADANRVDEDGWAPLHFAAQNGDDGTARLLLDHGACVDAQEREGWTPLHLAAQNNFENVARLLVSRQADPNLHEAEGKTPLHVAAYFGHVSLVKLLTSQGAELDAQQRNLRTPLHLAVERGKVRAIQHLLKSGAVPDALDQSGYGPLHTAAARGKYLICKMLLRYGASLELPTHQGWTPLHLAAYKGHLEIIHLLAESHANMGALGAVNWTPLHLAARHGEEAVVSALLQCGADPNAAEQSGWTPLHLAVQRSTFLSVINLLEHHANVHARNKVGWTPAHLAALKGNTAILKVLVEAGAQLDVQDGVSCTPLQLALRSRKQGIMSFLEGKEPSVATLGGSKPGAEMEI

RET(V804M) = molecular target: T3, RET(V804M) (Homo sapiens, UniProt P07949, V804M)
T3 construct: purchased Eurofins DiscoverX KINOMEscan

PAK4 = molecular target: T4, PAK4 (Homo sapiens, UniProt O96013)
T4 construct: purchased Eurofins DiscoverX KINOMEscan

PIK3CA(Q546K) = molecular target: T5, PIK3CA(Q546K) (Homo sapiens, UniProt P42336, Q546K)
T5 construct: purchased Eurofins DiscoverX KINOMEscan

PIK3CA(E545A) = molecular target: T6, PIK3CA(E545A) (Homo sapiens, UniProt P42336, E545A)
T6 construct: purchased Eurofins DiscoverX KINOMEscan

KIT(A829P) = molecular target: T7, KIT(A829P) (Homo sapiens, UniProt P10721, A829P)
T7 construct: purchased Eurofins DiscoverX KINOMEscan

MEK4 = molecular target: T8, MEK4 (Homo sapiens, UniProt P45985)
T8 construct: purchased Eurofins DiscoverX KINOMEscan
T8 sequence (P45985 1-399): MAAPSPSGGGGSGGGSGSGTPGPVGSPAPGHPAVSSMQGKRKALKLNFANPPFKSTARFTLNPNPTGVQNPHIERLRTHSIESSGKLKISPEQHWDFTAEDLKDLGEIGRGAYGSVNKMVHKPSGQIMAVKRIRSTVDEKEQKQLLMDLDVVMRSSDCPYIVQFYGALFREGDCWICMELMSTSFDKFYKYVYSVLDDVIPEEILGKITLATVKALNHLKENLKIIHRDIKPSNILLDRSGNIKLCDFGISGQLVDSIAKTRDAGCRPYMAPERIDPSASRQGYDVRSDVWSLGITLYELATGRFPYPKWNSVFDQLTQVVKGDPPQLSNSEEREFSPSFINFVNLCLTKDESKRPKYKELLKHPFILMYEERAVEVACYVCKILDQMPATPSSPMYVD

PIP5K1A = molecular target: T9, PIP5K1A (Homo sapiens, UniProt Q99755)
T9 construct: purchased Eurofins DiscoverX KINOMEscan
T9 sequence (Q99755 whole entry): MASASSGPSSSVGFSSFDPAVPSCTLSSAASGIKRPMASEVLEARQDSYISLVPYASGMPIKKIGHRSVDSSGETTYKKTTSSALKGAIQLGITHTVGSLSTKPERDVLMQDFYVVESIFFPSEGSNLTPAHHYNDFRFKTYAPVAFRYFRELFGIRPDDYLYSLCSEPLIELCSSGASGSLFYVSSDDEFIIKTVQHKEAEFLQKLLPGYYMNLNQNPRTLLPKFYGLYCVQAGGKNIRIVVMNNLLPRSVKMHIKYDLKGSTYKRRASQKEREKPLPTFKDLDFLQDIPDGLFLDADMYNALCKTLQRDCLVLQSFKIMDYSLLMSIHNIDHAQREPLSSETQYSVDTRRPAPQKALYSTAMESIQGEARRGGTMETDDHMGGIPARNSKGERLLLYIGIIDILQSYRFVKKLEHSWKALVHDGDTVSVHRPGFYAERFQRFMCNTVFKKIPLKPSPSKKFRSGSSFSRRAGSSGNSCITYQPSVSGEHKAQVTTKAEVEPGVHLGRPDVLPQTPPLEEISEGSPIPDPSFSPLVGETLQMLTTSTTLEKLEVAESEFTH

T7 sequence (P10721 26-976 A829P): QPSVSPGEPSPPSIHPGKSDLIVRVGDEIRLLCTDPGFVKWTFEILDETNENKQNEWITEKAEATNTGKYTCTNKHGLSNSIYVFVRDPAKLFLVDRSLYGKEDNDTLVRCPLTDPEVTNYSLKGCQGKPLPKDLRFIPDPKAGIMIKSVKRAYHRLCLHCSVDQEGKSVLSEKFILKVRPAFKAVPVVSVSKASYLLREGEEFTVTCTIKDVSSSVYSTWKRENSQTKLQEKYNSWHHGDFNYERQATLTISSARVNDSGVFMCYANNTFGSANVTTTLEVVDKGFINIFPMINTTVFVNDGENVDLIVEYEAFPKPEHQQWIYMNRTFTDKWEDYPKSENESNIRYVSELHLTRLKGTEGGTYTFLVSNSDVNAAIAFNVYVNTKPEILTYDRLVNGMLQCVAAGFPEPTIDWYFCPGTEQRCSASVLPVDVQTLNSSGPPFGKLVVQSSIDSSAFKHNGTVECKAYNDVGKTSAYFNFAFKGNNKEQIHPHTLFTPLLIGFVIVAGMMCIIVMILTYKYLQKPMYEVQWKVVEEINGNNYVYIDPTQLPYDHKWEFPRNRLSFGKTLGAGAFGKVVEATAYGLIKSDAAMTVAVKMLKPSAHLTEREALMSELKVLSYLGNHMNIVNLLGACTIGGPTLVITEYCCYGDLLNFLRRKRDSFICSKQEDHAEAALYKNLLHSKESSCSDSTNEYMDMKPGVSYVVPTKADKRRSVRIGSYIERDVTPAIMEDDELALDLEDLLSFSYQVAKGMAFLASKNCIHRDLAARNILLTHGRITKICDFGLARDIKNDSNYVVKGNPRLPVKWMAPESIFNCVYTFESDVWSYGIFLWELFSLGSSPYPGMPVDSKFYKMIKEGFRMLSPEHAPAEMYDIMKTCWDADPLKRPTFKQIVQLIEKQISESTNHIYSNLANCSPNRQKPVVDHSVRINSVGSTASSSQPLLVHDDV
T6 sequence (P42336 whole entry E545A): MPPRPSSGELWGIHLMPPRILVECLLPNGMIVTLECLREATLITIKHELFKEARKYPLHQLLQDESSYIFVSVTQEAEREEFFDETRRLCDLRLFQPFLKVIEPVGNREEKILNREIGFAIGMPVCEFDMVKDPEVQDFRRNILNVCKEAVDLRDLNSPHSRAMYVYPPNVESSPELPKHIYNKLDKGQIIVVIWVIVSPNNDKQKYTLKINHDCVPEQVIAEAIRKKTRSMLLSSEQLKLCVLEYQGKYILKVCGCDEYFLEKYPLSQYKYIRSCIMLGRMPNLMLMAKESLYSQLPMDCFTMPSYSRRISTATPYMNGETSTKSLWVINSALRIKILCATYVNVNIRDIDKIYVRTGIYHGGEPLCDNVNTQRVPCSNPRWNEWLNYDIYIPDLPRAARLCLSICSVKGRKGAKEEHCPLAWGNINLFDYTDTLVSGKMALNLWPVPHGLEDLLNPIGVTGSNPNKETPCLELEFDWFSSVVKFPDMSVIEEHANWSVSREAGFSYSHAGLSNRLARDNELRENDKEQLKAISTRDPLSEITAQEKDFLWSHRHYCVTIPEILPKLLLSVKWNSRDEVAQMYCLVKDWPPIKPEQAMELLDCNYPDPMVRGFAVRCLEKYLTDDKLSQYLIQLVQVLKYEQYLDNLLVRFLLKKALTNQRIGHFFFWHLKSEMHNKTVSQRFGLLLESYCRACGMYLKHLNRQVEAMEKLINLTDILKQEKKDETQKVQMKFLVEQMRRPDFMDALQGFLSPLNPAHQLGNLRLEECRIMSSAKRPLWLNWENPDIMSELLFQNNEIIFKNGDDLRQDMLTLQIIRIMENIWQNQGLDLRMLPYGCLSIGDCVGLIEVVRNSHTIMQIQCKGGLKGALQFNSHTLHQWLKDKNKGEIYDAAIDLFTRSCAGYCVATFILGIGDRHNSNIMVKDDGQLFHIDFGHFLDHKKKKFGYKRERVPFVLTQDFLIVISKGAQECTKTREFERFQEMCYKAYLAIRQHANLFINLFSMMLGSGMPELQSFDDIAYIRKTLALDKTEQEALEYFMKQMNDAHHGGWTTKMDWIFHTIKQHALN
T4 sequence (O96013 whole entry): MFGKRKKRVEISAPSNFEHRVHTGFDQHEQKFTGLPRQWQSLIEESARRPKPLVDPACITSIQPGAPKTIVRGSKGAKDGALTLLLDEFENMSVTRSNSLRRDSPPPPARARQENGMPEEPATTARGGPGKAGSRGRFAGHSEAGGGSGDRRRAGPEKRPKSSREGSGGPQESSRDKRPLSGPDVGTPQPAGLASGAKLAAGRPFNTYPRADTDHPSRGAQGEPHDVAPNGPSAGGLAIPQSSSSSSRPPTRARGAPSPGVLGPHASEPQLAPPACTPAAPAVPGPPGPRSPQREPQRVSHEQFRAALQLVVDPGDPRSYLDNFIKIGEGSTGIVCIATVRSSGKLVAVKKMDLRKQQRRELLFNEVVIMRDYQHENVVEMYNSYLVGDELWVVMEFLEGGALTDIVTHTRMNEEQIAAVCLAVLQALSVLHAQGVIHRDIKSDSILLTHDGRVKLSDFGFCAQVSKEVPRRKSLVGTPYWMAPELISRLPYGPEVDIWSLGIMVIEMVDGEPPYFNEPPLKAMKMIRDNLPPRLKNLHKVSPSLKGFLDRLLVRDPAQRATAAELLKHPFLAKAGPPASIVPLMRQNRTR
T3 sequence (P07949 29-1114 V804M): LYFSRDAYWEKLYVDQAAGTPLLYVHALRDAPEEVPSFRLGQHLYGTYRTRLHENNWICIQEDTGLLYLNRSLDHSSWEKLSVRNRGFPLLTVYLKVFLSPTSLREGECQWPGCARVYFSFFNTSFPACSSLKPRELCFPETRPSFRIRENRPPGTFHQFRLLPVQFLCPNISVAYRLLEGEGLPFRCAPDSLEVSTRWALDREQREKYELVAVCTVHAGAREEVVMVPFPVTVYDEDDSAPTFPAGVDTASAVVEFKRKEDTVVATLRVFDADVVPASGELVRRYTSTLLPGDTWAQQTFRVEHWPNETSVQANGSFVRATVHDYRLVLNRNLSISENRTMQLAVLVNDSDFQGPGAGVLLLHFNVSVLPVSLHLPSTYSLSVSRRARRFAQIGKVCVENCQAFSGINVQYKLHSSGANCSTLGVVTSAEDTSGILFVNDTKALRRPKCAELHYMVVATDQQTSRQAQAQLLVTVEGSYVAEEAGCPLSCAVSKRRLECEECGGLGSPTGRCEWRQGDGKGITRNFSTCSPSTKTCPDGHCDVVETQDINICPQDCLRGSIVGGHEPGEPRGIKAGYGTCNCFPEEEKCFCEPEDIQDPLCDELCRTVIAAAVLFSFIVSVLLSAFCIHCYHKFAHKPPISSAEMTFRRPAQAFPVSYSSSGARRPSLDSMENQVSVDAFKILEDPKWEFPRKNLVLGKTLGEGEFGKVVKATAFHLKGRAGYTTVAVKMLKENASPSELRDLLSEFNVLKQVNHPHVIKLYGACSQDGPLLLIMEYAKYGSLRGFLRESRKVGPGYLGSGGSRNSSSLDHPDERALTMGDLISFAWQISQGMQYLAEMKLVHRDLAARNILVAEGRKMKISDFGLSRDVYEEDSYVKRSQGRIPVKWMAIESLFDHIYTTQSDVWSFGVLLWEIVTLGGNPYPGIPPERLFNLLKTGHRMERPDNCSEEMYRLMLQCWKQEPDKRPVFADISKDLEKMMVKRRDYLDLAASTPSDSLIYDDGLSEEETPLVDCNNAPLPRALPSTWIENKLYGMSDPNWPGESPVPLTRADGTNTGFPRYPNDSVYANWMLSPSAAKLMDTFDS
T5 sequence (P42336 whole entry Q546K): as the sequence (P42336 whole entry E545A) above, with A545E, Q546K counted along it

In the case of Clc1cc(NCC2CC2)c2ncc(-c3ccc4[nH]ncc4c3)n2n1 [compound 2, 6-Chloro-N-(cyclopropylmethyl)-3-(1H-indazol-5-yl)imidazo[1,2-b]pyridazin-8-amine], the remaining binding at 1 µM (MST1) was 100%, the remaining binding at 1 µM (ANKK1) was 75% and the remaining binding at 1 µM (RET(V804M)) was 97%. It also gave a remaining binding at 1 µM (PAK4) of 79%, a remaining binding at 1 µM (PIK3CA(Q546K)) of 88% and a remaining binding at 1 µM (PIK3CA(E545A)) of 88%. The remaining binding at 1 µM (KIT(A829P)) was 75%, the remaining binding at 1 µM (MEK4) was 75% and the remaining binding at 1 µM (PIP5K1A) was 100%.

O=C(CN1CCOCC1)N[C@H]1CC[C@H](Nc2cc(Cl)nn3c(-c4ccc5[nH]ncc5c4)cnc23)CC1 [compound 26] gave a remaining binding at 1 µM (MST1) of 100%, a remaining binding at 1 µM (ANKK1) of 48% and a remaining binding at 1 µM (RET(V804M)) of 82%. For the same compound, the remaining binding at 1 µM (PAK4) was 93%, the remaining binding at 1 µM (PIK3CA(Q546K)) was 100% and the remaining binding at 1 µM (PIK3CA(E545A)) was 100%. The remaining binding at 1 µM (KIT(A829P)) was 45%, the remaining binding at 1 µM (MEK4) was 100% and the remaining binding at 1 µM (PIP5K1A) was 80%.

In the case of CN1CCC(CNc2cc(Cl)nn3c(-c4cc5nc(Nc6ccccc6)[nH]c5cc4F)cnc23)CC1 [compound 31, 6-Chloro-3-(6-fluoro-2-(phenylamino)-1H-benzo[d]imidazol-5-yl)-N-((1-methylpiperidin-4-yl)methyl)imidazo[1,2-b]pyridazin-8-amine], the remaining binding at 1 µM (MST1) was 95%, the remaining binding at 1 µM (ANKK1) was 100% and the remaining binding at 1 µM (RET(V804M)) was 100%. The remaining binding at 1 µM (PAK4) was 86%, the remaining binding at 1 µM (PIK3CA(Q546K)) was 81% and the remaining binding at 1 µM (PIK3CA(E545A)) was 78%. It also gave a remaining binding at 1 µM (KIT(A829P)) of 94%, a remaining binding at 1 µM (MEK4) of 100% and a remaining binding at 1 µM (PIP5K1A) of 91%.
